Values of other authors as cited in patent US20220047514A1, “SOLID ORAL PHARMACEUTICAL COMPOSITIONS FOR CHRONOTROPIC ADMINISTRATION OF DIPEPTIDYL PEPTIDASE IV INHIBITORS” (priority 2018, published 2022).

Key:
DPP-9 = DPP-9 (Homo sapiens, UniProt Q86TI2); conditions: at therapeutic concentrations
DPP-8 = DPP-8 (Homo sapiens, UniProt Q6V1X1); conditions: at therapeutic concentrations
DPP-8, sequence (Q6V1X1 whole entry): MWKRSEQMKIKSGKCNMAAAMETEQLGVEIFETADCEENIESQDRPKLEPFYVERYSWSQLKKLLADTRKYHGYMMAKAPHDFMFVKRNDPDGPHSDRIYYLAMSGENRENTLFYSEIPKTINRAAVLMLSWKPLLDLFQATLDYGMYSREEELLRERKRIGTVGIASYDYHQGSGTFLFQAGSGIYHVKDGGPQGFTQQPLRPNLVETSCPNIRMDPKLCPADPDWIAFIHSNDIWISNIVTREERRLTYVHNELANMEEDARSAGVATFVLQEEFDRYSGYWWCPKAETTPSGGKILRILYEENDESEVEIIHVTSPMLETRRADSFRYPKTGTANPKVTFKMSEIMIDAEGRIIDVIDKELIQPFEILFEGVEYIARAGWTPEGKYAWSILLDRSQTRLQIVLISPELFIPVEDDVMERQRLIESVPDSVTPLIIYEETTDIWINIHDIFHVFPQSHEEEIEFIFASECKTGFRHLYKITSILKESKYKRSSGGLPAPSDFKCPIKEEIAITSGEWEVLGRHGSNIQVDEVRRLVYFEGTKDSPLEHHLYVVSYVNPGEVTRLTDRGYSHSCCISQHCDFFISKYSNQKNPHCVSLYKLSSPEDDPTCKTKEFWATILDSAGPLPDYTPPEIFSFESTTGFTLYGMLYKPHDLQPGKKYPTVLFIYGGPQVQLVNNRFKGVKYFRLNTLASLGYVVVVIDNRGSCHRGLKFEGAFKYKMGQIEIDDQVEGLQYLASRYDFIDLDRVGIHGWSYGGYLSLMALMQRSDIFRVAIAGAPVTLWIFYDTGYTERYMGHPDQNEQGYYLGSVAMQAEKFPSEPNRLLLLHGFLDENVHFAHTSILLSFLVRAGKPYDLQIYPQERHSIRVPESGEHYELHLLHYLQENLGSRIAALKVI

DPP-9, sequence (Q86TI2 whole entry): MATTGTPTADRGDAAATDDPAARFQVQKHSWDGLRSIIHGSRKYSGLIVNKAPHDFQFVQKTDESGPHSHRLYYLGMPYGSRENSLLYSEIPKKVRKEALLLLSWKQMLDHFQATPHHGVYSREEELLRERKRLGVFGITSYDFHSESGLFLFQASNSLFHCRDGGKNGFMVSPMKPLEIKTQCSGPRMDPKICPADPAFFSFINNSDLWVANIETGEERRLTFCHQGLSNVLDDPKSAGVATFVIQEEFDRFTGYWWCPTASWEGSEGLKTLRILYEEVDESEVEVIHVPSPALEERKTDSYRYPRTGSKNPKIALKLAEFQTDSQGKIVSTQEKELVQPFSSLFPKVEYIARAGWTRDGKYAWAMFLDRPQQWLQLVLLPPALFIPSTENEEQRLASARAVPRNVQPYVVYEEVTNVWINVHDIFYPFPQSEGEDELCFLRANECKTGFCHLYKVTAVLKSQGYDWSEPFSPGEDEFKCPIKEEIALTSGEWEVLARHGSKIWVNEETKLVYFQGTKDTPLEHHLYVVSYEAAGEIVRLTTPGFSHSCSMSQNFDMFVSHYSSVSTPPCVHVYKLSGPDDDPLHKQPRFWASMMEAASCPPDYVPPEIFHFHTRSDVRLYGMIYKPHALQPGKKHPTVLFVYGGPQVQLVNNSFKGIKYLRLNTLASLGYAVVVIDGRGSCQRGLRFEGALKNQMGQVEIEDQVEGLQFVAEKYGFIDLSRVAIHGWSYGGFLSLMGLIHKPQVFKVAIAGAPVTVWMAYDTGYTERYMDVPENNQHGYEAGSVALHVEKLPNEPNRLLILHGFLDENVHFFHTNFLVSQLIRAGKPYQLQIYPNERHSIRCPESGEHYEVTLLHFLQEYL

N[C@@H](CC(=O)N1CCn2c(nnc2C(F)(F)F)C1)Cc1cc(F)c(F)cc1F [Sitagliptin, sitagliptin]
inhibition of the activity of DPP-9 (DPP-9): does not inhibit | inhibition of the activity of DPP-8 (DPP-8): does not inhibit
